In data set [1] the test system is Escherichia coli. The data set can be described thus: Antibacterial activity against Escherichia coli at 1 ug/ml by disc diffusion method. The format is functional. The settings on record: read-out: DIZ.
Data set [2] concerns Pseudomonas aeruginosa. As to the kind of experiment: Antibacterial activity against Pseudomonas aeruginosa at 1 ug/ml by disc diffusion method. The class given is functional. The settings on record: read-out: DIZ. (In general: In agar diffusion tests the substance spreads into inoculated agar from a disc or well.)
For data set [3], the system named is Proteus sp. The data set can be described thus: Antibacterial activity against Proteus sp. at 1 ug/ml by disc diffusion method. The format is functional. The note with it: Proteus sp. (in: enterobacteria); read-out: DIZ.
The test system of data set [4] is Staphylococcus aureus. As to the kind of experiment: Antibacterial activity against Staphylococcus aureus at 1 ug/ml by disc diffusion method. The note with it: read-out: DIZ. The format is functional.
A short description of data set [5]: Solubility of the compound in ethanol. The class given is physicochemical.
Data set [6] can be described thus: Solubility of the compound in dioxane. The class given is physicochemical.
Data set [7] in a line: Solubility of the compound in THF. The format is physicochemical.
In data set [8] the test system is Escherichia coli. As to the kind of experiment: Antibacterial activity against Escherichia coli at 10 ug/ml by disc diffusion method. The settings on record: read-out: DIZ. The class given is functional.
Data set [9] concerns Pseudomonas aeruginosa. As to the kind of experiment: Antibacterial activity against Pseudomonas aeruginosa at 10 ug/ml by disc diffusion method. The settings on record: read-out: DIZ. The format is functional.
Data set [10] relates to Proteus sp. The data set can be described thus: Antibacterial activity against Proteus sp. at 10 ug/ml by disc diffusion method. The format is functional. The note with it: Proteus sp. (in: enterobacteria); read-out: DIZ.
The subject of data set [11] is Staphylococcus aureus. As to the kind of experiment: Antibacterial activity against Staphylococcus aureus at 10 ug/ml by disc diffusion method. The class given is functional. The settings on record: read-out: DIZ.
The test system of data set [12] is Escherichia coli. The data set can be described thus: Antibacterial activity against Escherichia coli at 50 ug/ml by disc diffusion method. The format is functional. The note with it: read-out: DIZ.
The subject of data set [13] is Pseudomonas aeruginosa. As to the kind of experiment: Antibacterial activity against Pseudomonas aeruginosa at 50 ug/ml by disc diffusion method. The class given is functional. The note with it: read-out: DIZ.
For data set [14], the system named is Proteus sp. The data set can be described thus: Antibacterial activity against Proteus sp. at 50 ug/ml by disc diffusion method. The settings on record: Proteus sp. (in: enterobacteria); read-out: DIZ. The format is functional.
The test system of data set [15] is Staphylococcus aureus. As to the kind of experiment: Antibacterial activity against Staphylococcus aureus at 50 ug/ml by disc diffusion method. The format is functional. The note with it: read-out: DIZ.
Data set [16] relates to Escherichia coli. The data set can be described thus: Antibacterial activity against Escherichia coli at 100 ug/ml by disc diffusion method. The settings on record: read-out: DIZ. The class given is functional.
The subject of data set [17] is Pseudomonas aeruginosa. As to the kind of experiment: Antibacterial activity against Pseudomonas aeruginosa at 100 ug/ml by disc diffusion method. The format is functional. The note with it: read-out: DIZ.
Data set [18] has as its system Proteus sp. As to the kind of experiment: Antibacterial activity against Proteus sp. at 100 ug/ml by disc diffusion method. The class given is functional. The note with it: Proteus sp. (in: enterobacteria); read-out: DIZ.
Data set [19] has as its system Staphylococcus aureus. As to the kind of experiment: Antibacterial activity against Staphylococcus aureus at 100 ug/ml by disc diffusion method. The format is functional. The settings on record: read-out: DIZ.
The subject of data set [20] is Proteus sp. As to the kind of experiment: Antibacterial activity against Proteus sp. at 30 ug/ml by disc diffusion method. The class given is functional. The settings on record: Proteus sp. (in: enterobacteria); read-out: DIZ.
The test system of data set [21] is Escherichia coli. As to the kind of experiment: Antibacterial activity against Escherichia coli at 5 ug/ml by disc diffusion method. The note with it: read-out: DIZ.
The subject of data set [22] is Pseudomonas aeruginosa. As to the kind of experiment: Antibacterial activity against Pseudomonas aeruginosa at 5 ug/ml by disc diffusion method. The note with it: read-out: DIZ.
Data set [23] concerns Staphylococcus aureus. The data set can be described thus: Antibacterial activity against Staphylococcus aureus at 5 ug/ml by disc diffusion method. The settings on record: read-out: DIZ.
Data set [24] relates to Escherichia coli. As to the kind of experiment: Antibacterial activity against Escherichia coli at 15 ug/ml by disc diffusion method. The settings on record: read-out: DIZ. The class given is functional.
In data set [25] the test system is Staphylococcus aureus. The data set can be described thus: Antibacterial activity against Staphylococcus aureus at 15 ug/ml by disc diffusion method. The format is functional. The note with it: read-out: DIZ.
Data set [26] has as its system Escherichia coli. The data set can be described thus: Antibacterial activity against Escherichia coli at 30 ug/ml by disc diffusion method. The class given is functional. The note with it: read-out: DIZ.
The subject of data set [27] is Pseudomonas aeruginosa. The data set can be described thus: Antibacterial activity against Pseudomonas aeruginosa at 30 ug/ml by disc diffusion method. The class given is functional. The settings on record: read-out: DIZ.
The subject of data set [28] is Staphylococcus aureus. The data set can be described thus: Antibacterial activity against Staphylococcus aureus at 30 ug/ml by disc diffusion method. The class given is functional. The note with it: read-out: DIZ.

These results are taken from ChEMBL document CHEMBL3763119, “Metal-based biologically active azoles and β-lactams derived from sulfa drugs” (Bioorg Med Chem, 2016).

In the case of `COc1cccc(C2C(Cl)C(=O)N2c2ccc(S(=O)(=O)Nc3cc(C)on3)cc2)c1O` (configuration not stated), the zone of inhibition at 1 µg/mL in [1] turned out to be 7 mm; in data set [2], 6 mm; in [3] it was 6 mm; in data set [4], 7 mm. For the same molecule, the solubility result in data set [5], in [6] and in [7] was “soluble” in each case. For the same molecule, the zone of inhibition at 10 µg/mL in [8] stood at 9 mm; in data set [9], 9 mm; in data set [10], 10 mm; in data set [11] it was 9 mm. The zone of inhibition at 50 µg/mL is 13 mm in data set [12], 11 mm in data set [13], 12 mm in data set [14] and 11 mm in data set [15]. The zone of inhibition at 100 µg/mL in [16] is 14 mm; in [17] it was 13 mm; in [18], 12 mm; in data set [19], 16 mm.

`COc1cccc(/C=N/c2ccc(S(=O)(=O)Nc3cc(C)on3)cc2)c1O`: the zone of inhibition at 1 µg/mL in data set [1], in [2], in data set [3] and in data set [4] was 6 mm each time. Besides, the solubility result in [5], in data set [6] and in [7] was “soluble” throughout. For the same molecule, the zone of inhibition at 10 µg/mL in data set [8] was found to be 8 mm; in data set [9] it was 10 mm; in [10], 11 mm; in data set [11], 8 mm. Further, the zone of inhibition at 50 µg/mL in data set [12] came to 11 mm; in data set [13], 11 mm; in data set [14], 14 mm; in data set [15], 10 mm. Further, the zone of inhibition at 100 µg/mL amounted to 14 mm in data set [16], 15 mm in data set [17], 15 mm in data set [18] and 12 mm in data set [19].

As to `COc1cccc(/C=N/c2ccc(S(=O)(=O)Nc3nccs3)cc2)c1O`, the zone of inhibition at 1 µg/mL in data set [1] and in [4] was 6 mm each time. Besides, the solubility entry in data set [5], in [6] and in data set [7] was “soluble” throughout. Further, the zone of inhibition at 10 µg/mL in data set [8] amounted to 9 mm; in data set [9], 8 mm; in [10], 7 mm; in [11] it was 9 mm. Besides, the zone of inhibition at 50 µg/mL in [12] is 12 mm; in data set [13], 10 mm; in data set [14] it was 8 mm; in data set [15], 12 mm. Moreover, the zone of inhibition at 100 µg/mL amounted to 15 mm in data set [16], 13 mm in data set [17], 9 mm in [18] and 14 mm in data set [19].

Regarding `COc1cccc(C2C(Cl)C(=O)N2c2ccc(S(=O)(=O)Nc3nccs3)cc2)c1O` (configuration not stated), the zone of inhibition at 1 µg/mL in [1] and in [4] was 6 mm each time. Besides, the solubility result in [5], in [6] and in data set [7] was “soluble” throughout. Further, the zone of inhibition at 10 µg/mL in data set [8] was 8 mm; in [9], 6 mm; in data set [10] it was 7 mm; in data set [11], 8 mm. Moreover, the zone of inhibition at 50 µg/mL in data set [12] amounted to 12 mm; in [13], 9 mm; in [14], 8 mm; in [15], 12 mm. Further, the zone of inhibition at 100 µg/mL in [16] worked out at 13 mm; in data set [17], 11 mm; in data set [18], 9 mm; in data set [19], 16 mm.

`C[C@H]1[C@H](NC(=O)/C(=N\OC(C)(C)C(=O)O)c2csc(N)n2)C(=O)N1S(=O)(=O)O` [AZTREONAM]: the zone of inhibition at 30 µg/mL in [20] was found to be 24 mm.

Consider `O=C(O)c1cn(C2CC2)c2cc(N3CCNCC3)c(F)cc2c1=O` [CIPROFLOXACIN], for which the zone of inhibition at 5 µg/mL in data set [21] was determined as 28 mm; in data set [22], 17 mm; in data set [23], 20 mm.

With `CC[C@H]1OC(=O)[C@H](C)[C@@H](O[C@H]2C[C@@](C)(OC)[C@@H](O)[C@H](C)O2)[C@H](C)[C@@H](O[C@@H]2O[C@H](C)C[C@H](N(C)C)[C@H]2O)[C@](C)(OC)C[C@@H](C)C(=O)[C@H](C)[C@@H](O)[C@]1(C)O` [CLARITHROMYCIN], the zone of inhibition at 15 µg/mL in [24] was 16 mm; in [25] it was 23 mm.

For the molecule `CO[C@@H]1[C@@H](OC(N)=O)[C@@H](O)[C@H](Oc2ccc3c(O)c(NC(=O)c4ccc(O)c(CC=C(C)C)c4)c(=O)oc3c2C)OC1(C)C` [NOVOBIOCIN], the zone of inhibition at 30 µg/mL stood at 20 mm in data set [20], 7 mm in data set [26], 14 mm in data set [27] and 24 mm in data set [28].

With `Cc1cc(NS(=O)(=O)c2ccc(N)cc2)no1` [SULFAMETHOXAZOLE], the zone of inhibition at 10 µg/mL came out at 8 mm in [8], 7 mm in data set [9], 7 mm in [10] and 6 mm in data set [11]. For the same molecule, the zone of inhibition at 50 µg/mL in data set [12] was 10 mm; in data set [13] it was 8 mm; in data set [14], 8 mm; in data set [15], 8 mm. Besides, the zone of inhibition at 100 µg/mL in data set [16] amounted to 12 mm; in [17], 10 mm; in data set [18], 9 mm; in [19], 9 mm.

Take `Nc1ccc(S(=O)(=O)Nc2nccs2)cc1` [SULFATHIAZOLE]: the zone of inhibition at 1 µg/mL in data set [4] amounted to 6 mm. For the same molecule, the zone of inhibition at 10 µg/mL is 7 mm in [8], 7 mm in [9], 8 mm in [10] and 10 mm in data set [11]. The zone of inhibition at 50 µg/mL is 10 mm in [12], 8 mm in data set [13], 10 mm in [14] and 13 mm in data set [15]. Besides, the zone of inhibition at 100 µg/mL in data set [16] turned out to be 11 mm; in data set [17], 9 mm; in data set [18], 11 mm; in data set [19], 15 mm.
